Assay results taken from publication PMC11413853, “Discovery of VU6007496: Challenges in the Development of an M1 Positive Allosteric Modulator Backup Candidate” (ACS Chemical Neuroscience, 2024).
Read-outs that look alike come from different tables or passages of the source.

Key:
mice = test: Mouse phenotypic seizure liability assay (modified Racine score); type: in vivo; conditions: 100 mg/kg i.p., male C57Bl/6 mice, 3 h
Protocol: Brain plasma concentration ratio (Kp) was calculated by dividing brain concentration by plasma concentration for each animal. Unbound brain to unbound plasma concentration ratio (Kp,uu) is calculated using the following formula: Kp,uu = (Brain ng/g x brain fu)/(plasma ng/ml x plasma fu). […]
Behavioral Manifestations of Seizure Activity
To evaluate induction of behavioral manifestation of seizure activity, C57Bl/6 mice received administration of vehicle or 100 mg/kg M1 PAM. Compounds were formulated in 30% Captisol (11) or 10% Tween 80 (2-4 and 12) (pH 7.0) at a concentration of 10 mg/mL and injected i.p. (n = 3). Animals were monitored continuously and scored for behavioral manifestations of seizure activity at 5, 10, 15, and 30 min, and 1 and 3 h. Behavioral manifestations of seizures were scored using a modified Racine scoring system.2 Briefly, a score of 0 represents no behavior alterations; score 1, immobility, mouth and facial movements, or facial clonus; score 2, head nodding, tail extension; score 3, forelimb clonus, repetitive movements; score 4, rearing and tonic clonic seizure; and score 5, continuous rearing and falling, severe generalized tonic clonic seizure.

human M1 = biological target: T1, human M1 (Homo sapiens, UniProt P11229); test: Calcium mobilization assay, human M1 (agonist and PAM modes); type: cell-based
T1 sequence (P11229 1-460): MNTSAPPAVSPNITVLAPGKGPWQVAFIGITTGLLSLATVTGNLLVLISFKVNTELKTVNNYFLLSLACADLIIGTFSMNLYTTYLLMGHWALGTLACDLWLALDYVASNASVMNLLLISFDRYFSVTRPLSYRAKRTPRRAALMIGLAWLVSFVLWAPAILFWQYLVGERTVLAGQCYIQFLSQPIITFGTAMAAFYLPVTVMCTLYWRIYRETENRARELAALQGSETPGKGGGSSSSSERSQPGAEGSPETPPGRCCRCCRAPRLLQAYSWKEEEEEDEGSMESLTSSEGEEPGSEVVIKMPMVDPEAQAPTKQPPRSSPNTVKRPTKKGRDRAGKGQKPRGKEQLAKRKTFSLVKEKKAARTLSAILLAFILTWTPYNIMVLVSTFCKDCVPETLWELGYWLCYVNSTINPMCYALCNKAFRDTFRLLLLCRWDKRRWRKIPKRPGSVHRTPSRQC

[1] = Rat plasma and brain exposure, 100 mg/kg i.p., 3 h; type: in vivo; conditions: brain and plasma, ip, 100 mg/kg i.p.
Text: Due to the prevalence of metabolite A (VU6036463, 24) in both in vitro preparations and in vivo, we first synthesized and characterized 24. Utilizing intermediate 19 (Scheme 3), a Suzuki coupling with benzyl chloride 28 afforded a mixture of N-Boc protected analog 29 and N-H analog 29a in moderate isolated yield. Hydrolysis of the nitriles to the carboxylic acid, followed by a HATU-mediated coupling with tetrahydro-2H-pyran-4-amine delivered 24 in 81% yield over the two steps.[21] In our kinetic assays, 24 was an “active” metabolite, with the profile of an M1 ago-PAM. […] To ascertain if 24 could be the source of the adverse cholinergic events in rats, we dosed 11 and 24, in parallel, at a dose of 100 mg/kg i.p. in 30% captisol and prepared plasma and brain samples at a 3-h time point to determine brain exposure of the M1 ago-PAM 24. In this study, 11 achieved a total plasma concentration of 3.6 μM and a total brain concentration of 0.93 μM (Kp = 0.26).

Structure (SMILES) | seizure liability / behavioral convulsions (modified Racine score) (mice) | hM1 PAM AChmax (%) (human M1; PAM mode, % ACh max) | EC50 (human M1; PAM mode, read-out: hM1 PAM EC50) [nM] | hM1 Agonist AChmax (%) (human M1; agonist mode, % ACh max) | EC50 (human M1; agonist mode, read-out: hM1 Agonist EC50) [nM] | Kp at 3 h [1]
Cn1ccc(-c2ccc(Cn3cc(C(=O)N[C@H]4CCOC[C@@H]4O)c4ncccc43)cc2)n1 [compound 4, reference compound] | robust behavioral convulsions | – | – | – | – | –
Cn1ccc(-c2ccc(Cc3cc(C(=O)N[C@H]4CCOC[C@@H]4O)nc4ccn(C)c34)cc2)n1 [compound 30] | – | 71 | 4.9 | 60 | 176 | 0.38
Cc1ccc(Cc2cc3c(=O)n([C@H]4CCCC[C@@H]4O)cnc3c3ccccc23)cn1 [compound 3, reference compound] | robust behavioral convulsions | – | – | – | – | –
